Earlier results on two molecules are cited in US9884017B2, “Foamable vehicles and pharmaceutical compositions comprising aprotic polar solvents and uses thereof” (Foamix Pharmaceuticals Ltd., priority 2009, dated 2018).

The conditions of the series: 25° C.

On to `CN(C)C=O` [DMF, dimethylformamide], for which the Dielectric constant is recorded as 36.7 and the Polarity was 3.8 Debye.
For the molecule `C[S+](C)[O-]` [DMSO, Dimethyl sulfoxide], the Dielectric constant is listed as 46.4 and the Polarity is 4.3 Debye.
